# From article PMC11125359 (Pharmaceuticals, 2024)
# Tests used:
# [1] = ABTS radical scavenging assay; settings: equal concentrations (1000 µg/mL); mean ± SE
# Description: (§1) All in vitro biological activities were assessed in the tested compounds at equal concentrations (1000 µg/mL). All assays were carried out in triplicate.
# In vitro biological activities
# (§2) The total antioxidant capacity (TAC) was determined by analyzing the green phosphate/Mo5+ complex at a wavelength (λ) of 695 nm, following the procedure described by Prieto
# (§3) et al. Samples (at each concentration) were mixed with a reagent solution containing 0.3 N sulfuric
# (§4) acid, 28 mM sodium phosphate, and 4 mM ammonium molybdate. Methanol (80%) was used in place
# (§5) of the sample for the blank. The tubes were sealed and incubated in a boiling water bath for 90
# (§6) minutes. After cooling to room temperature, the absorbance was measured at 695 nm against the
# (§7) blank. Ascorbic acid was used at the same concentrations as a standard. The antioxidant capacity was
# (§8) expressed as mg gallic acid equivalent per gram weight.
# (§9) The iron reducing power was determined as µg/mL using the method proposed by Oyaizu
# (§10) In brief, 1ml of the tested sample (at each concentration) was combined with 1mL of 200mM
# (§11) sodium phosphate buffer (pH 6.6) and 1mL of 1% potassium ferricyanide. The mixture was then
# (§12) incubated at 50°C for 20 minutes, followed by the addition of 1mL of trichloroacetic acid (10%). After
# (§13) centrifugation at 2000rpm for 10 minutes, the upper layer solution (2.5 mL) was mixed with 2.5 mL of double deionized water and 1mL of fresh ferric chloride (0.1%). The absorbance was measured at
# (§14) 700nm against a blank prepared without the sample. Ascorbic acid was used at the same
# (§15) concentrations as a standard. A high absorbance at 700nm indicates a higher reducing power in the
# (§16) The 1,1-Diphenyl-2-picryl-hydrazyl (DPPH) radical scavenging activities were evaluated using the method described by Rahman et al. An antioxidant substance capable of donating a
# (§17) hydrogen atom to a solution containing DPPH- can reduce the stable free radical, causing the solution
# (§18) to change color from violet to pale yellow. The remaining DPPH- radical was quantified by
# (§19) nm using a spectroscopic method. Two milliliters of a DPPH solution (100 µM) in ethanol were mixed
# (§20) with 2 mL of the sample (at each concentration). The reaction mixture for each concentration was
# (§21) thoroughly vortexed and then incubated in the dark at room temperature for 30 minutes. The
# (§22) absorbance was then measured spectrophotometrically at 518 nm against a blank (ethanol). For the
# (§23) control, 2 mL of ethanol was added instead of the sample and run simultaneously with the test.
# (§24) Ascorbic acid was used at the same concentrations as a positive control. Percent inhibition of the
# (§25) DPPH free radical was calculated. The median inhibitory concentration (IC 50) for each tested
# (§26) The procedure for the 2,2'-azinobis-(3-ethylbenzothiazoline-6-sulfonic acid) (ABTS) assay
# (§27) potassium persulfate solution (2.4 mM). The working solution was prepared by mixing the two stock
# (§28) solutions in equal quantities and allowing them to react at room temperature in a dark place for 14
# (§29) hours. The solution was then diluted by mixing 1 mL of ABTS solution with 60 mL of methanol to
# (§30) was prepared for each assay. The tested samples (at each concentration) were allowed to react with 1
# (§31) mL of the ABTS solution, and the absorbance was taken at 734 nm after 7 minutes using a
# (§32) spectrophotometer. The ABTS scavenging capacities of the samples were compared with that of
# (§33) ascorbic acid (at the same concentrations).
# α-glucosidase = test: α-Glucosidase inhibition (anti-diabetic); format: biochemical; settings: equal concentrations (1000 µg/mL); mean ± SE
# [2] = biological target: bovine serum albumin (BSA) (Bos taurus, UniProt P02769); settings: equal concentrations (1000 µg/mL); mean ± SE
# [3] = Iron-reducing power (IRP); settings: equal concentrations (1000 µg/mL); mean ± SE, three replicates
# Description: as §1
# In vitro biological activities
# as §2, §3, §4, §5, §6, §7, §8, §9, §10, §11, §12, §13, §14, §15, §16, §17, §18, §19, §20, §21, §22, §23, §24, §25, §26, §27, §28, §29, §30, §31, §32, §33
# [4] = DPPH radical-scavenging activity; settings: read-out: DPPH (IC50); mean ± SE, three replicates
# α-amylase = test: α-Amylase inhibition (anti-diabetic); format: biochemical; settings: equal concentrations (1000 µg/mL); mean ± SE
# [5] = Total antioxidant capacity (TAC), phosphomolybdenum method; settings: equal concentrations (1000 µg/mL); mean ± SE, three replicates
# Description: as §1
# In vitro biological activities
# as §2, §3, §4, §5, §6, §7, §8, §9, §10, §11, §12, §13, §14, §15, §16, §17, §18, §19, §20, §21, §22, §23, §24, §25, §26, §27, §28, §29, §30, §31, §32, §33
# [6] = biological target: acetylcholinesterase (AChE) (Homo sapiens, UniProt P22303); test: biochemical; settings: same concentration (1000 µg/mL); mean ± SE
# [7] = test system: proteinase enzyme (trypsin); test: Proteinase enzyme inhibition (anti-inflammatory); format: biochemical; settings: equal concentrations (1000 µg/mL); mean ± SE
# Chain of acetylcholinesterase (AChE) (P22303 32-614, species assumed): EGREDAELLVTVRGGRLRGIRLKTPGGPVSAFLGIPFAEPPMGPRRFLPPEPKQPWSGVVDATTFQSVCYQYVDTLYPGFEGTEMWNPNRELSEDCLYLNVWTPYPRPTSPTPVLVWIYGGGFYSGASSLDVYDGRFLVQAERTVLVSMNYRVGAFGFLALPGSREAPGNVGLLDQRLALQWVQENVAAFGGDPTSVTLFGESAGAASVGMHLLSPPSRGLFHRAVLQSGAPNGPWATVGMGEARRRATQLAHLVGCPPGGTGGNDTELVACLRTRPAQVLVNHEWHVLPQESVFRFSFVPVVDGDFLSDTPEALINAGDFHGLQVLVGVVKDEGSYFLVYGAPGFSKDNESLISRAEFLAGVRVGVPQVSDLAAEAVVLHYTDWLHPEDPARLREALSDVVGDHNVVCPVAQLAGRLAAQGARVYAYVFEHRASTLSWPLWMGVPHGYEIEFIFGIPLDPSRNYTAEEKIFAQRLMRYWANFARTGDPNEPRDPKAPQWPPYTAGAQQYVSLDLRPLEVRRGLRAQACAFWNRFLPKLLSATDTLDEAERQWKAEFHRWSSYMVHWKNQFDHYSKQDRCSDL
# Chain of bovine serum albumin (BSA) (P02769 25-607): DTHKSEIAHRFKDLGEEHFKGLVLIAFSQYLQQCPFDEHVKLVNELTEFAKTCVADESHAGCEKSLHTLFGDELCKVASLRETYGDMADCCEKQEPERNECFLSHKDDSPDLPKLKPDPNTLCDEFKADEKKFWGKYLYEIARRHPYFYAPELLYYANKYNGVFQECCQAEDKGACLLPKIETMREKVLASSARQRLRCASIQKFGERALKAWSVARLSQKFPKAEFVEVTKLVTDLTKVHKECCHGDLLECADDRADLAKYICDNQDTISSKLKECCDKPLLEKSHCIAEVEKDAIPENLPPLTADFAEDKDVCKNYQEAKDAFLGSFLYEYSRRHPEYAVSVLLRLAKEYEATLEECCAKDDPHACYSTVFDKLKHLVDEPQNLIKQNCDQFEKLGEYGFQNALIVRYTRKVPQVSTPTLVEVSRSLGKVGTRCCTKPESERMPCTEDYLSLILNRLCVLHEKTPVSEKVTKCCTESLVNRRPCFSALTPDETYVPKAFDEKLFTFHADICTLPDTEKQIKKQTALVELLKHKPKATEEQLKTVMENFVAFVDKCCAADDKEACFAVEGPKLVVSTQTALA
Compound,ABTS (%) inhibition [1],Inhibition (%) α-Glucosidase (α-glucosidase),Inhibition (%) Protein Denaturation [2],Iron-Reducing Power (IRP) [3],IC50 [4],Inhibition (%) α-Amylase (α-amylase),Total Antioxidant Capacity (TAC) [5],inhibition at 1000 µg/mL [6],Inhibition (%) Proteinase [7]
COc1ccc(Nc2n[nH]c(N=Cc3c(C)nn(-c4ccccc4)c3Cl)c2C(=O)Nc2ccc(Cl)cc2)cc1 [6f],44.00 ± 0.03%,15.67 ± 0.03%,15.64 ± 0.02%,19.98 ± 0.04 µg/mL,37.6 ± 0.02 µM,18.22 ± 0.03%,30.47 ± 0.11 mg Gallic Acid/g,24.52 ± 0.01%,13.60 ± 0.02%
COc1ccc(Nc2n[nH]c(N=Cc3c(C)n(C)n(-c4ccccc4)c3=O)c2C(=O)Nc2ccccc2)cc1 [7d],43.85 ± 0.03%,15.61 ± 0.03%,15.59 ± 0.02%,19.92 ± 0.04 µg/mL,40.53 ± 0.02 µM,18.16 ± 0.03%,30.36 ± 0.11 mg Gallic Acid/g,24.44 ± 0.01%,13.56 ± 0.02%
Cc1ccc(NC(=O)c2c(Nc3ccccc3)n[nH]c2N=Cc2c(C)n(C)n(-c3ccccc3)c2=O)cc1 [7b],43.19 ± 0.03%,15.38 ± 0.03%,15.36 ± 0.02%,19.62 ± 0.04 µg/mL,42.45 ± 0.02 µM,17.88 ± 0.03%,29.91 ± 0.11 mg Gallic Acid/g,24.07 ± 0.01%,13.35 ± 0.02%
Cc1c(C=Nc2[nH]nc(Nc3ccccc3)c2C(=O)Nc2ccc(Cl)cc2)c(=O)n(-c2ccccc2)n1C [7c],43.27 ± 0.03%,15.41 ± 0.03%,15.38 ± 0.02%,19.65 ± 0.04 µg/mL,40.72 ± 0.02 µM,17.91 ± 0.03%,29.96 ± 0.11 mg Gallic Acid/g,24.11 ± 0.01%,13.38 ± 0.02%
Cc1ccc(NC(=O)c2c(Nc3ccccc3)n[nH]c2/N=C/c2ccc(N3CCCCC3)cc2)cc1 [5b],22.03 ± 0.01%,7.85 ± 0.01%,7.83 ± 0.01%,10.01 ± 0.02 µg/mL,59.8 ± 0.03 µM,9.12 ± 0.01%,15.26 ± 0.06 mg Gallic Acid/g,12.28 ± 0.01%,6.81 ± 0.01%
O=C(Nc1ccc(Cl)cc1)c1c(Nc2ccccc2)n[nH]c1/N=C/c1ccc(N2CCCCC2)cc1 [5c],43.34 ± 0.03%,15.43 ± 0.03%,15.41 ± 0.02%,19.68 ± 0.04 µg/mL,42.86 ± 0.02 µM,17.94 ± 0.03%,30.01 ± 0.11 mg Gallic Acid/g,24.15 ± 0.01%,13.40 ± 0.02%
"O=C1O[C@H]([C@@H](O)CO)C(O)=C1O [Ascorbic Acid, reference compound]",41.25 ± 0.01%,,,71.85 ± 0.05 µg/mL,29.3 ± 0.01 µM,,79.10 ± 0.11 mg Gallic Acid/g,,
COc1ccc(Nc2n[nH]c(N=Cc3c(C)nn(-c4ccccc4)c3Cl)c2C(=O)Nc2ccccc2)cc1 [6d],43.93 ± 0.03%,15.64 ± 0.03%,15.62 ± 0.02%,19.95 ± 0.04 µg/mL,40.11 ± 0.02 µM,18.19 ± 0.03%,30.42 ± 0.11 mg Gallic Acid/g,24.48 ± 0.01%,13.58 ± 0.02%
COc1ccc(Nc2n[nH]c(N=Cc3c(C)nn(-c4ccccc4)c3Cl)c2C(=O)Nc2ccc(C)cc2)cc1 [6e],44.08 ± 0.03%,15.69 ± 0.03%,15.67 ± 0.02%,20.02 ± 0.04 µg/mL,38.94 ± 0.02 µM,18.25 ± 0.03%,30.52 ± 0.11 mg Gallic Acid/g,24.56 ± 0.01%,13.63 ± 0.02%
"C[C@H]1O[C@H](O[C@H]2[C@H](O)[C@@H](O)[C@@H](O[C@H]3[C@H](O)[C@@H](O)C(O)O[C@@H]3CO)O[C@@H]2CO)[C@H](O)[C@@H](O)[C@@H]1N[C@H]1C=C(CO)[C@@H](O)[C@H](O)[C@H]1O (stereo partly drawn) [Acarbose, reference compound]",,53.94 ± 0.01%,,,,76.58 ± 0.01%,,,
Cc1ccc(NC(=O)c2c(Nc3ccccc3)n[nH]c2N=Cc2c(C)nn(-c3ccccc3)c2Cl)cc1 [6b],50.45 ± 0.03%,17.96 ± 0.03%,17.94 ± 0.02%,22.91 ± 0.04 µg/mL,36.02 ± 0.02 µM,20.89 ± 0.03%,34.93 ± 0.13 mg Gallic Acid/g,28.11 ± 0.02%,15.60 ± 0.02%
Cc1nn(-c2ccccc2)c(Cl)c1C=Nc1[nH]nc(Nc2ccccc2)c1C(=O)Nc1ccc(Cl)cc1 [6c],50.54 ± 0.03%,17.99 ± 0.03%,17.97 ± 0.02%,22.95 ± 0.05 µg/mL,34.58 ± 0.02 µM,20.92 ± 0.03%,34.99 ± 0.13 mg Gallic Acid/g,28.16 ± 0.02%,15.62 ± 0.02%
COc1ccc(Nc2n[nH]c(N=Cc3c(C)n(C)n(-c4ccccc4)c3=O)c2C(=O)Nc2ccc(C)cc2)cc1 [7e],22.65 ± 0.01%,8.07 ± 0.02%,8.05 ± 0.01%,10.29 ± 0.02 µg/mL,51.98 ± 0.03 µM,9.38 ± 0.02%,15.68 ± 0.06 mg Gallic Acid/g,12.62 ± 0.01%,4.81 ± 0.01%
Cc1nn(-c2ccccc2)c(Cl)c1C=Nc1[nH]nc(Nc2ccccc2)c1C(=O)Nc1ccccc1 [6a],43.12 ± 0.03%,15.35 ± 0.03%,15.33 ± 0.02%,19.58 ± 0.04 µg/mL,43.35 ± 0.02 µM,17.85 ± 0.03%,29.86 ± 0.11 mg Gallic Acid/g,24.03 ± 0.01%,13.33 ± 0.02%
